Experimental data taken from patent US12492185B2, “Benzimidazole derivatives and their uses” (Teijin Pharma Limited, priority 2019, dated 2025).

Target: T1, human TRPC6 (Homo sapiens, UniProt Q9Y210)
T1 construct: expressed in transfected cells
T1 sequence (Q9Y210 1-931): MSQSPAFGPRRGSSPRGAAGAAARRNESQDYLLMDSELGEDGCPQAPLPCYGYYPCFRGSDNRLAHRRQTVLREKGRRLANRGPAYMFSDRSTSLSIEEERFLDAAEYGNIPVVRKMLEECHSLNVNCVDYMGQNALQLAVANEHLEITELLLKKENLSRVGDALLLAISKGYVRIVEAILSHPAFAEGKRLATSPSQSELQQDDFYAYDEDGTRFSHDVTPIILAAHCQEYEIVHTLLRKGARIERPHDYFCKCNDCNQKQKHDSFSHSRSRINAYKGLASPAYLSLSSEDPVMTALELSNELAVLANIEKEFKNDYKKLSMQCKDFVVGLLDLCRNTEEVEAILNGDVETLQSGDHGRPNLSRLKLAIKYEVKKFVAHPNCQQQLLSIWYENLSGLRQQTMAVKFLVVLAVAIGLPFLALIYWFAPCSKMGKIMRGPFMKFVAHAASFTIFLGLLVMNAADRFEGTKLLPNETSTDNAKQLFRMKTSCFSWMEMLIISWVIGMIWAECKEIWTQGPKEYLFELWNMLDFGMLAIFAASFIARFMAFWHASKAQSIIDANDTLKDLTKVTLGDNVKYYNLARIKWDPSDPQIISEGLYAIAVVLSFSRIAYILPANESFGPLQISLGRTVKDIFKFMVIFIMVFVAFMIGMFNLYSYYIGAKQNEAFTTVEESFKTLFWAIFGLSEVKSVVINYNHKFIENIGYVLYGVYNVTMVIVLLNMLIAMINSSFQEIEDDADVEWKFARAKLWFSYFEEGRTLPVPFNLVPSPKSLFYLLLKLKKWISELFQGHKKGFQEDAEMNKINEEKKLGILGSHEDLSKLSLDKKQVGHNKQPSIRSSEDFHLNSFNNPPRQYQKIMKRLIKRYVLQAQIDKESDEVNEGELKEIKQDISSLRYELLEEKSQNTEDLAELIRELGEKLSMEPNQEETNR
Assay: TRPC6 Calcium Flux Assay
Assay type: cell-based
Settings: inhibition of OAG-triggered calcium influx in HEK293 cells stably transfected with human TRPC6; FLIPR; 25 min compound preincubation; 50 uM OAG; read-out: hTRPC6 Potency
Experimental: Potency of TRPC6 (Transient receptor potential channel family C6) inhibitors were measured by their inhibition of Calcium influx trigged by OAG (1-Oleoyl-2-acetyl-sn-glycerol, Millipore Sigma, O6754) stimulation on HEK293 cells stably transfected with human TRPC6 using a FLIPR tetra system (BD PBX Calcium Assay Kit; BD Biosciences, San Jose Calif.). Cells were grown in a humidified environment at 37° C. under 5% CO2 using the growth medium with the following selective reagents (Dulbecco's Modified Eagle's Medium (DMEM) high glucose, 10% Fetal Bovine Serum, 1×PSGlu (penicillin-streptomycin glutamine), 1×NEAA (Non-essential amino acid), 1×Na Pyruvate and 200 ug/ml Hygromycin). For general passage, cells were grown to 70-90% confluency; the media was removed, and the cells were gently washed 2 times with calcium and magnesium free PBS (phosphate-buffered saline). Trypsin (3 mL) was applied for 5 minutes at 37° C. The cells were dislodged by rapping flask against base of a hand and 7 mL of growth medium was added to deactivate trypsin and re-suspend cells. The usual splitting schedule was 1:5 every 2-3 days.
Cells were plated the day before the assay, plating cell density is 1.0-1.5×10^4/25 μl/well in poly-D-lysine (PDL) coated 384-well plates using either multichannel pipettes or multidrop. These cells were first incubated with fluorescence dye at room temperature for 90-120 minutes after they were grown on PDL-coated 384-well black plates overnight (Dye loading buffer 10 ml example: 9 mL assay buffer, 1 mL, 10×PBX signal enhancer, 10 μL Calcium indicator). The cells were incubated with a dose of compounds for 25 minutes before being stimulated with TRPC6 agonist OAG. The OAG solution was prepared by adding OAG into assay buffer (Ca ringer solution base: 10 mM HEPES (4-(2-hydroxyethyl)-1-piperazine-ethanesulfonic acid), 4 mM MgCl2, 120 mM NaCl, 5 mM KCl, pH=7.2 @25° C.)+0.1% BSA+2 mM CaCl2) to the concentration of 0.2 mM/2% DMSO, which achieves a final on cell concentration of 50 uM/0.5% DMSO. 12.5 uL OAG mixture was added and the activation of the TRPC6 channel was measured by the change of intracellular Calcium levels on FLIPR terra system.
Data was acquired by measuring the fluorescent peak signal subtracted from the background during the 180 second imaging frame. Each data point is further normalized to 100% of OAG triggered signal vs. buffer. Table 3 provides the IC50 for each compound, which data is obtained by plotting peak signal over the compound dose.

| Compound | IC50 [nM] |
| --- | --- |
| N[C@@H]1CN(c2nc3cc(F)ccc3n2Cc2ccc(F)cn2)CC[C@H]1F (single isomer, unassigned) [Example 1] | 0.7 |
| N[C@@H]1CN(c2nc3cc(F)cc(F)c3n2Cc2ccc(F)cn2)CCC1(F)F (single isomer, unassigned) [Example 2] | 2.2 |
| N[C@@H]1CN(c2nc3ccc(F)cc3n2Cc2ncc(Cl)cn2)CCC1(F)F (single isomer, unassigned) [Example 6] | 1 |
| N[C@@H]1CN(c2nc3ccc(F)cc3n2Cc2ccc(F)cn2)CCC1(F)F (single isomer, unassigned) [Example 7] | 22.9 |
| N[C@@H]1CN(c2nc3ccc(F)cc3n2Cc2ccc(Cl)cn2)CCC1(F)F (single isomer, unassigned) [Example 10] | 2.5 |
| N[C@@H]1CN(c2nc3ccc(F)cc3n2Cc2ccc(Cl)cn2)CC[C@H]1F (single isomer, unassigned) [Example 12, (3R.4R)-1-(1-((5-chloro-2-pyridinyl)methyl)-6-fluoro-1H-benzimidazol-2-yl)-4-fluoro-3-piperidinamine] | 1 |
| N#Cc1ccc2nc(N3CCC(F)(F)[C@H](N)C3)n(Cc3ccc(Cl)cn3)c2c1 (single isomer, unassigned) [Example 13] | 1.3 |
| N[C@@H]1CN(c2nc3c(F)cc(F)cc3n2Cc2ncc(Cl)cn2)CCC1(F)F (single isomer, unassigned) [Example 14] | 1.2 |
| N#Cc1cc(F)cc2c1nc(N1CC[C@@H](F)[C@H](N)C1)n2Cc1ccc(F)cn1 (single isomer, unassigned) [Example 15] | 1 |
| N[C@@H]1CN(c2nc3cc(F)c(F)cc3n2Cc2ccc(Cl)cn2)CCC1(F)F [Example 16, (3R)-1-(1-((5-chloro-2-pyridinyl)methyl)-5,6-difluoro-1H-benzimidazol-2-yl)-4,4-difluoro-3-piperidinamine] | 0.6 |
| N[C@@H]1CN(c2nc3cc(F)c(F)cc3n2Cc2ncc(Cl)cn2)CCC1(F)F [Example 17, (3R)-1-(1-((5-chloro-2-pyrimidinyl)methyl)-5,6-difluoro-1H-benzimidazol-2-yl)-4,4-difluoro-3-piperidinamine] | 0.6 |
| N[C@@H]1CN(c2nc3cc(F)c(F)cc3n2Cc2ncc(Cl)cn2)CC[C@H]1F [Example 18, (3R,4R)-1-(1-((5-chloro-2-pyrimidinyl)methyl)-5,6-difluoro-1H-benzimidazol-2-yl)-4-fluoro-3-piperidinamine] | 1.2 |
| COc1cnc(Cn2c(N3CC[C@@H](F)[C@H](N)C3)nc3cc(F)c(F)cc32)nc1 [Example 19, (3R,4R)-1-(5,6-difluoro-1-((5-methoxy-2-pyrimidinyl)methyl)-1H-benzimidazol-2-yl)-4-fluoro-3-piperidinamine] | 1.2 |
| N#Cc1cccc(Cn2c(N3CC[C@@H](F)[C@H](N)C3)nc3cc(F)c(F)cc32)n1 [Example 20, 6-((2-((3R,4R)-3-amino-4-fluoro-1-piperidinyl)-5,6-difluoro-1H-benzimidazol-1-yl)methyl)-2-pyridinecarbonitrile] | 1.8 |

Now those with a lower IC50, led by results:

| IC50 [nM] | Compound |
| --- | --- |
| 0.5 | COc1cnc(Cn2c(N3CC[C@@H](F)[C@H](N)C3)nc3c(F)cc(F)cc32)nc1 (single isomer, unassigned) [Example 9] |
| 0.4 | N[C@@H]1CN(c2nc3ccc(F)cc3n2Cc2ccc(F)cn2)CC[C@H]1F (single isomer, unassigned) [Example 4] |
| 0.4 | N[C@@H]1CN(c2nc3cc(F)ccc3n2Cc2ncc(F)cn2)CC[C@H]1F (single isomer, unassigned) [Example 11] |
| 0.4 | COc1cc(F)c2nc(N3CC[C@@H](F)[C@H](N)C3)n(Cc3ncc(Cl)cn3)c2c1 (single isomer, unassigned) [Example 21] |
| 0.3 | N[C@@H]1CN(c2nc3cc(F)ccc3n2Cc2ccc(Cl)cn2)CCC1(F)F (single isomer, unassigned) [Example 5] |
| 0.2 | N[C@@H]1CN(c2nc3ccc(F)cc3n2Cc2ncc(F)cn2)CC[C@H]1F (single isomer, unassigned) [Example 3] |
| 0.1 | Cc1ccc(Cn2c(N3CC[C@@H](F)[C@H](N)C3)nc3cc(F)c(F)cc32)nc1 [Example 8, (3R,4R)-1-(5,6-difluoro-1-((5-methyl-2-pyridinyl)methyl)-1H-benzimidazol-2-yl)-4-fluoro-3-piperidinamine] |
